Assay results: BindingDB's records for doi:10.1021/cb500177c (University of Bern, 2014)

What was measured:
Cannabinoid receptor 2 = Cannabinoid receptor 2 (Homo sapiens, UniProt P34972); experiment: CB1 & 2 Binding Assays; settings: pH 7.4; 30 °C
[1] = molecular target: T1, Fatty-acid amide hydrolase 1 (Homo sapiens, UniProt O00519); experiment: FAAH Activity Assay; settings: pH 7.6; 37 °C
T1 sequence (O00519 whole entry): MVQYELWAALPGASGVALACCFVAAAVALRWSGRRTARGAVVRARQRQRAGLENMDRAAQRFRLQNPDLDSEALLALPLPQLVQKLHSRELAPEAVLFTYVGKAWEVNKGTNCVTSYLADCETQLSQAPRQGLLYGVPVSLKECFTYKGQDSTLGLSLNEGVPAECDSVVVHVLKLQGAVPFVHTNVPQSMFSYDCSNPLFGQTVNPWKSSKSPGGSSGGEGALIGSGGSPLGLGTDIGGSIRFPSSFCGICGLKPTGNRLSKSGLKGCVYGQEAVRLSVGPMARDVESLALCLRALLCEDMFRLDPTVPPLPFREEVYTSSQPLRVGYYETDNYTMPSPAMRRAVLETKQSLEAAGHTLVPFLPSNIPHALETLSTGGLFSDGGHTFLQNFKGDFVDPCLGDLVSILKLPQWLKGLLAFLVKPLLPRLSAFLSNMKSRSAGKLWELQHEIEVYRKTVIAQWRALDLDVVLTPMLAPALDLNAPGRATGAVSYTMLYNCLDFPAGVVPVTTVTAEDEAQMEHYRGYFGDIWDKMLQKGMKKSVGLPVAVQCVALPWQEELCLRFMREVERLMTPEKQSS
Procedure: In this assay, 0.05 Units of hFAAH was pre-incubated for 30 min at 37 C with 2 uL of 11a, 11b, 11f at different concentrations (0.01 - 100 uM) or vehicin 196 uL of assay buffer (10 mM Tris-HCl, 1 mM EDTA (pH 7.6) and 0.1% w/v fatty acid-free BSA). 2 uL of AEA/[3H]-AEA mixture was added to the solution (final concenttion in assay was 10 nM) and incubated for 15 min at 37 C.

Cannabinoid receptor 1 = Cannabinoid receptor 1 (Homo sapiens, UniProt P21554); experiment: CB1 & 2 Binding Assays; settings: pH 7.4; 30 °C
Sequence of Cannabinoid receptor 1 (P21554 whole entry): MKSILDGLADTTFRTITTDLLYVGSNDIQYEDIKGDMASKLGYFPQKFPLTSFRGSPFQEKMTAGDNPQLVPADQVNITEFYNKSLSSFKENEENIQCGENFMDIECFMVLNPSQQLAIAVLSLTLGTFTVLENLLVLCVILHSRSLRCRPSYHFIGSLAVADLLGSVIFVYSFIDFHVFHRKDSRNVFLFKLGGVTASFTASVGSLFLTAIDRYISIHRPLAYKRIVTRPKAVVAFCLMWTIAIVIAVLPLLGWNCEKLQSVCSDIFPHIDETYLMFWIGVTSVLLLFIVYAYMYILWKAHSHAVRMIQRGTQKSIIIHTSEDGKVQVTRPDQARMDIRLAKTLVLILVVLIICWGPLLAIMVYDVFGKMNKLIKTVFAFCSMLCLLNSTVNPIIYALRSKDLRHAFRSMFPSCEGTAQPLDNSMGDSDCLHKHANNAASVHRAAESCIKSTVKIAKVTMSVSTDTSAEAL

Sequence of Cannabinoid receptor 2 (P34972 whole entry): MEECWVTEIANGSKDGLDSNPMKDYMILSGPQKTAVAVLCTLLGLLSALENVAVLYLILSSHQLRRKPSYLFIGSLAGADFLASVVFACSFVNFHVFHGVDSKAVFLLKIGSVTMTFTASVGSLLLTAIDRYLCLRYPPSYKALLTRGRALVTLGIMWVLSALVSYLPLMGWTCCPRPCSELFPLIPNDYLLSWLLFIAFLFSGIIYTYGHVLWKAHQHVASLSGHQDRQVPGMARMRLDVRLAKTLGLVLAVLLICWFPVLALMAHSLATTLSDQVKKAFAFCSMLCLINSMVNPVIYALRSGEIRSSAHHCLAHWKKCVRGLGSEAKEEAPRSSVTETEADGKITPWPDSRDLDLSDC

SMILES	Ki (Cannabinoid receptor 2)	IC50 [1]	Ki (Cannabinoid receptor 1)
C=C(C)CC[C@@H]1[C@H](C(=C)CC/C=C/C(=O)NCCC)CC1(C)C [(E)-6-((1R,2R)-3,3-Dimethyl-2-(3-methylbut-3-enyl)cyclobutyl)-N-propylhepta-2,6-dienamide (11a)]	1.01 µM	6.3 µM	–
C=CCNC(=O)/C=C/CCC(=C)[C@@H]1CC(C)(C)[C@@H]1CCC(=C)C [(E)-N-Allyl-6-((1R,2R)-3,3-dimethyl-2-(3-methylbut-3-enyl)cyclobutyl)hepta-2,6-dienamide (11b)]	0.68 µM	2.7 µM	–
C=C(C)CC[C@@H]1[C@H](C(=C)CC/C=C/C(=O)NCCCl)CC1(C)C [(E)-N-(2-Chloroethyl)-6-((1R,2R)-3,3-dimethyl-2-(3-methylbut-3-enyl)cyclobutyl)hepta-2,6-dienamide (11c)]	1.43 µM	> 10 µM	–
CCCC(C)(C)c1ccc2c(c1)OC(C)(C)[C@@H]1CC=C(C)C[C@@H]21	0.013 µM	–	–
C=C(C)CC[C@@H]1[C@H](C(=C)CC/C=C/C(=O)NCCc2ccc(O)c(O)c2)CC1(C)C [(E)-N-(3,4-Dihydroxyphenethyl)-6-((1R,2R)-3,3-dimethyl-2-(3-methylbut-3-enyl)cyclobutyl)hepta-2,6-dienamide (11f)]	6.5 µM	> 10 µM	> 10 µM
C=C1CC/C=C(\C)CC[C@@H]2[C@H]1CC2(C)C [β-humulene]	–	> 10 µM	> 10 µM
C=C(C)CC[C@@H]1[C@H](C(=C)CC/C=C/C(=O)NCc2ccc(O)c(OC)c2)CC1(C)C [(E)-6-((1R,2R)-3,3-Dimethyl-2-(3-methylbut-3-enyl)cyclobutyl)-N-(4-hydroxy-3-methoxybenzyl)hepta-2,6-dienamide (11e)]	> 10 µM	7.1 µM	> 10 µM
